According to patent US12312370B2, “Immunoproteasome inhibitors” (Principia Biopharma Inc., priority 2017, dated 2025):

Assays:
[1] = biological target: constitutive proteasome β5c unit (Homo sapiens, UniProt P28074); test: Caliper-based proteasome enzymatic activity assay, β5c; type: biochemical; conditions: human recombinant constitutive proteasome 0.3 nM, FAM-labeled peptide substrate 1 μM, rt 3 h; read-out: β5c subunit IC50
[2] = biological target: immunoproteasome LMP7/B5i subunit (Homo sapiens, UniProt P28062); test: Caliper-based proteasome enzymatic activity assay, LMP7; type: biochemical; conditions: human recombinant immunoproteasome 0.3 nM, FAM-labeled peptide substrate 1 μM, rt 3 h; read-out: LMP7 subunit IC50

| SMILES | IC50 [1] [nM] | IC50 [2] [nM] |
| --- | --- | --- |
| CC(C)(C=C(C#N)C(=O)N1C2CCC1(COC(=O)N[C@@H](Cc1ccccc1)B(O)O)CC2)N1CC2CC(C1)O2 [Example 132, ((1R)-1-((((7-(4-(6-oxa-3-azabicyclo[3.1.1]heptan-3-yl)-2-cyano-4-methylpent-2-enoyl)-7-azabicyclo[2.2.1]heptan-1-yl)methoxy)carbonyl)amino)-2-phenylethyl)boronic acid] | 1080 | 0.8 |
| CC(C)(C=C(C#N)C(=O)N1C2CCC1(COC(=O)N[C@@H](CCc1ccccc1)B(O)O)CC2)N1CCC(F)(F)C1 [Example 77, (R)-(1-((((7-(2-cyano-4-(3,3-difluoropyrrolidin-1-yl)-4-methylpent-2-enoyl)-7-azabicyclo[2.2.1]heptan-1-yl)methoxy)carbonyl)amino)-3-phenylpropyl)boronic acid] | 3280 | 0.9 |
| CC1(C)CCN(C(C)(C)C=C(C#N)C(=O)N2CCC[C@H](OC(=O)N[C@@H](Cc3coc4ccccc34)B(O)O)C2)C1 [Example 68, ((R)-2-(benzofuran-3-yl)-1-(((((S)-1-(2-cyano-4-(3,3-dimethylpyrrolidin-1-yl)-4-methylpent-2-enoyl)piperidin-3-yl)oxy)carbonyl)amino)ethyl)boronic acid] | 1240 | 31.8 |
| CC(C)C=C(C#N)C(=O)NCCCC[C@H](NC(=O)[C@@H](NC(=O)C(C)C)[C@@H](C)O)C(=O)N[C@@H](CC(C)C)B(O)O [Example 9, ((R)-1-((S)-6-(2-cyano-4-methylpent-2-enamido)-2-((2S,3R)-3-hydroxy-2-isobutyramidobutanamido)hexanamido)-3-methylbutyl)boronic acid] | 9.4 | 8.2 |
| C[C@H]1CN(C(C)(C)C=C(C#N)C(=O)N2C3CCC2(COC(=O)N[C@@H](Cc2ccccc2)B(O)O)CC3)CCO1 [Example 122, ((R)-1-((((7-(2-cyano-4-methyl-4-((S)-2-methylmorpholino)pent-2-enoyl)-7-azabicyclo[2.2.1]heptan-1-yl)methoxy)carbonyl)amino)-2-phenylethyl)boronic acid] | 1170 | 2 |
| C[C@@H]1CN(C(C)(C)C=C(C#N)C(=O)N2C3CCC2(COC(=O)N[C@@H](Cc2ccccc2)B(O)O)CC3)C[C@@H](C)O1 [Example 126, ((R)-1-((((7-(2-cyano-4-((2R,6R)-2,6-dimethylmorpholino)-4-methylpent-2-enoyl)-7-azabicyclo[2.2.1]heptan-1-yl)methoxy)carbonyl)amino)-2-phenylethyl)boronic acid] | 967 | 1.3 |
| CC(C)(C=C(C#N)C(=O)N1CCC[C@H](OC(=O)N[C@@H](Cc2ccccc2)B(O)O)C1)N1CCC(F)(F)C1 [Example 60, ((R)-1-(((((S)-1-(2-cyano-4-(3,3-difluoropyrrolidin-1-yl)-4-methylpent-2-enoyl)piperidin-3-yl)oxy)carbonyl)amino)-2-phenylethyl)boronic acid] | 463 | 1.4 |
| C=CC(=O)N1C2CCC1(COC(=O)N[C@@H](CCc1ccccc1)B(O)O)CC2 [Example 71, (R)-(1-((((7-acryloyl-7-azabicyclo[2.2.1]heptan-1-yl)methoxy)carbonyl)amino)-3-phenylpropyl)boronic acid] | > 5000 | 528 |
| CC(C)(C=C(C#N)C(=O)N1CCC[C@H](OC(=O)N[C@@H](Cc2ccccc2)B(O)O)C1)N1CCN(C2COC2)CC1 [Example 79] | 2780 | 5.3 |
| CC(C)C=C(C#N)C(=O)NCCCC[C@H](NC(=O)c1cccc(O)n1)C(=O)N[C@@H](CC(C)C)B(O)O [Example 7, ((R)-1-((S)-6-(2-cyano-4-methylpent-2-enamido)-2-(6-hydroxypicolinamido)hexanamido)-3-methylbutyl)boronic acid] | 1 | 1.3 |
| CC(C)(C=C(C#N)C(=O)N1CCC[C@@H](CC(=O)N[C@@H](Cc2ccccc2)B(O)O)C1)N1CCC(F)(F)C1 [Example 59, ((R)-1-(2-((S)-1-(2-cyano-4-(3,3-difluoropyrrolidin-1-yl)-4-methylpent-2-enoyl)piperidin-3-yl)acetamido)-2-phenylethyl)boronic acid] | 163 | 21 |
| CCc1cccc(C[C@H](NC(=O)[C@H](COC[C@H]2CCCN2C(=O)C(C#N)=CC(C)C)NCC(F)(F)F)B(O)O)c1 [Example 30, ((R)-1-((S)-3-(((R)-1-(2-cyano-4-methylpent-2-enoyl)pyrrolidin-2-yl)methoxy)-2-((2,2,2-trifluoroethyl)amino)propanamido)-2-(3-ethylphenyl)ethyl)boronic acid] | 1830 | 87 |
| CC#CC(=O)N(C)c1cccc(C[C@H](NC(=O)c2cc(Cl)ccc2Cl)C(=O)N[C@@H](Cc2ccccc2)B(O)O)c1 [Example 18, ((R)-1-((S)-2-(2,5-dichlorobenzamido)-3-(3-(N-methylbut-2-ynamido)phenyl)propanamido)-2-phenylethyl)boronic acid] | 10 | 7.3 |
| CC(C)(C)C=C(C#N)C(=O)N1CCC[C@@H]1COC[C@H](NCC(F)(F)F)C(=O)N[C@@H](Cc1ccccc1)B(O)O [Example 24, (R)-1-((S)-3-(((R)-1-(2-cyano-4,4-dimethylpent-2-enoyl)pyrrolidin-2-yl)methoxy)-2-(2,2,2-trifluoroethylamino)propanamido)-2-phenylethylboronic acid] | 166 | 26 |
| CC1(C)CCN(C(C)(C)C=C(C#N)C(=O)N2CCC[C@H](OC(=O)N[C@@H](Cc3ccc(C(F)(F)F)cc3)B(O)O)C2)C1 [Example 69, ((R)-1-(((((S)-1-(2-cyano-4-(3,3-dimethylpyrrolidin-1-yl)-4-methylpent-2-enoyl)piperidin-3-yl)oxy)carbonyl)amino)-2-(4-(trifluoromethyl)phenyl)ethyl)boronic acid] | 3370 | 26.1 |
| CC(C)(C=C(C#N)C(=O)N1C[C@H](OC(=O)N[C@@H](Cc2ccccc2)B(O)O)[C@@H](F)C1)N1CCC(F)(F)C1 [Example 109, ((R)-1-(((((3S,4S)-1-(2-cyano-4-(3,3-difluoropyrrolidin-1-yl)-4-methylpent-2-enoyl)-4-fluoropyrrolidin-3-yl)oxy)carbonyl)amino)-2-phenylethyl)boronic acid] | 621 | 3.5 |
| CC1(C)CCN(C(C)(C)C=C(C#N)C(=O)N2CCC[C@H](OC(=O)N[C@@H](Cc3ccc(F)cc3)B(O)O)C2)C1 [Example 72, ((R)-1-(((((S)-1-(2-cyano-4-(3,3-dimethylpyrrolidin-1-yl)-4-methylpent-2-enoyl)piperidin-3-yl)oxy)carbonyl)amino)-2-(4-fluorophenyl)ethyl)boronic acid] | 851 | 5.4 |
| C=CC(=O)N1CCC[C@H](OC(=O)N[C@@H](Cc2ccccc2)B(O)O)C1 [Example 67, ((R)-1-(((((S)-1-acryloylpiperidin-3-yl)oxy)carbonyl)amino)-2-phenylethyl)boronic acid] | > 5000 | 249 |
| COC(=O)N1CCN(C(C)(C)C=C(C#N)C(=O)N2CCCC[C@@H](OC(=O)N[C@@H](Cc3ccccc3)B(O)O)C2)CC1 [Example 107, ((R)-1-(((((R)-1-(2-cyano-4-(4-(methoxycarbonyl)piperazin-1-yl)-4-methylpent-2-enoyl)azepan-3-yl)oxy)carbonyl)amino)-2-phenylethyl)boronic acid] | 1070 | 1 |
